Test results from ChEMBL document CHEMBL4004867, “Novel antioxidants' synthesis and their anti-oxidative activity through activating Nrf2 signaling pathway” (2017).
Active and inactive are the calls of the source. The calls are words filed in the database; no cut-off is given here.

Tests used:
[1] = biological target: T1, Nuclear factor erythroid 2-related factor 2 (Rattus norvegicus) (UniProt O54968); test: Induction of Nrf2 activity in rat PC12 cells assessed as upregulation of GCLC levels after 24 hrs by Western blot method; format: cell-based
T1 sequence (whole entry): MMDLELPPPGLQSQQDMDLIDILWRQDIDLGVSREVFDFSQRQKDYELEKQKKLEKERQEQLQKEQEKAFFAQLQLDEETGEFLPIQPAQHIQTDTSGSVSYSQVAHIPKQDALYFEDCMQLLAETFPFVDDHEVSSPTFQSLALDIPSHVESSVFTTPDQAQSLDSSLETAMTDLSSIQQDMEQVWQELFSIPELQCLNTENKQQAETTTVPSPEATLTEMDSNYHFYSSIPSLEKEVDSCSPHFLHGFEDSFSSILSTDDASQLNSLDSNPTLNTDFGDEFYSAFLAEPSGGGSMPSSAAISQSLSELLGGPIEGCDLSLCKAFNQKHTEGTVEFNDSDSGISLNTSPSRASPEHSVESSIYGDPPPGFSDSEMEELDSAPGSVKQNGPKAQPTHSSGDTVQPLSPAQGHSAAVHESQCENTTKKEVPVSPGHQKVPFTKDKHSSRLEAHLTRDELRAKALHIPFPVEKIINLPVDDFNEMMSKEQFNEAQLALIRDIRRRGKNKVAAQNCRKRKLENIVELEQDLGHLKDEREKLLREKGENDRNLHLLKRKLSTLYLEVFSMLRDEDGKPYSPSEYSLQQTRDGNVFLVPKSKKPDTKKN

[2] = test system: PC-12; test: Cytoprotective activity against H2O2-induced oxidative damage in rat PC12 cells assessed as early apoptotic cells at 2.5 uM preincubated for 24 hrs followed by H2O2 addition measured after 24 hrs by annexin V-FITC/propidium iodide staining-based flow cytometric method (reference value: 0.558%); format: functional
[3] = Antioxidant activity assessed as DPPH radical scavenging activity relative to tBHQ; format: functional
[4] = test system: PC-12; test: Cytoprotective activity against H2O2-induced oxidative damage in rat PC12 cells preincubated for 24 hrs followed by H2O2 addition measured after 24 hrs by annexin V-FITC/propidium iodide staining-based flow cytometric method; format: functional, cell-based
[5] = test system: PC-12; test: Cytoprotective activity against H2O2-induced oxidative damage in rat PC12 cells assessed as late apoptotic cells at 5 uM preincubated for 24 hrs followed by H2O2 addition measured after 24 hrs by annexin V-FITC/propidium iodide staining-based flow cytometric method (reference value: 10.7%); format: functional
[6] = test system: PC-12; test: Cytoprotective activity against H2O2-induced oxidative damage in rat PC12 cells assessed as increase in cell viability at 10 uM preincubated for 24 hrs followed by H2O2 addition measured after 24 hrs in presence of GCLC inhibitor BSO by MTT assay; format: functional, cell-based
[7] = test system: PC-12; test: Cytoprotective activity against H2O2-induced oxidative damage in rat PC12 cells assessed as viable cells at 5 uM preincubated for 24 hrs followed by H2O2 addition measured after 24 hrs by annexin V-FITC/propidium iodide staining-based flow cytometric method (reference value: 85.2%); format: functional; conditions: read-out: Activity
[8] = test system: PC-12; test: Cytoprotective activity against H2O2-induced oxidative damage in rat PC12 cells assessed as necrotic cells at 10 uM preincubated for 24 hrs followed by H2O2 addition measured after 24 hrs by annexin V-FITC/propidium iodide staining-based flow cytometric method (reference value: 3.47%); format: functional
[9] = biological target: T1, Nuclear factor erythroid 2-related factor 2 (Rattus norvegicus); test: Induction of Nrf2 nuclear translocation in rat PC12 cells at 10 uM after 6 hrs by DAPI staining-based immunofluorescence method; format: cell-based
[10] = biological target: T1, Nuclear factor erythroid 2-related factor 2 (Rattus norvegicus); test: Induction of Nrf2 activity in rat PC12 cells assessed as upregulation of GCLC mRNA levels at 2.5 to 10 uM after 24 hrs by RT-PCR method; format: cell-based
[11] = test system: PC-12; test: Cytoprotective activity against H2O2-induced oxidative damage in rat PC12 cells assessed as early apoptotic cells at 5 uM preincubated for 24 hrs followed by H2O2 addition measured after 24 hrs by annexin V-FITC/propidium iodide staining-based flow cytometric method (reference value: 0.558%); format: functional
[12] = test system: PC-12; test: Cytoprotective activity against H2O2-induced oxidative damage in rat PC12 cells assessed as early apoptotic cells at 10 uM preincubated for 24 hrs followed by H2O2 addition measured after 24 hrs by annexin V-FITC/propidium iodide staining-based flow cytometric method (reference value: 0.558%); format: functional
[13] = test system: PC-12; test: Cytoprotective activity against H2O2-induced oxidative damage in rat PC12 cells assessed as necrotic cells at 5 uM preincubated for 24 hrs followed by H2O2 addition measured after 24 hrs by annexin V-FITC/propidium iodide staining-based flow cytometric method (reference value: 3.47%); format: functional
[14] = test system: PC-12; test: Cytoprotective activity against H2O2-induced oxidative damage in rat PC12 cells assessed as late apoptotic cells at 10 uM preincubated for 24 hrs followed by annexin V-FITC/propidium iodide staining-based flow cytometric method (reference value: 10.7%); format: functional
[15] = test system: PC-12; test: Cytoprotective activity against H2O2-induced oxidative damage in rat PC12 cells assessed as late apoptotic cells at 2.5 uM preincubated for 24 hrs followed by H2O2 addition measured after 24 hrs by annexin V-FITC/propidium iodide staining-based flow cytometric method (reference value: 10.7%); format: functional
[16] = Antioxidant activity assessed as DPPH radical scavenging activity relative to edaravone; format: functional
[17] = test system: PC-12; test: Cytoprotective activity against H2O2-induced oxidative damage in rat PC12 cells assessed as necrotic cells at 2.5 uM preincubated for 24 hrs followed by H2O2 addition measured after 24 hrs by annexin V-FITC/propidium iodide staining-based flow cytometric method (reference value: 3.47%); format: functional
[18] = test system: PC-12; test: Cytoprotective activity against H2O2-induced oxidative damage in rat PC12 cells assessed as viable cells at 10 uM preincubated for 24 hrs followed by H2O2 addition measured after 24 hrs by annexin V-FITC/propidium iodide staining-based flow cytometric method (reference value: 85.2%); format: functional; conditions: read-out: Activity
[19] = test system: PC-12; test: Cytoprotective activity against H2O2-induced oxidative damage in rat PC12 cells assessed as viable cells at 2.5 uM preincubated for 24 hrs followed by H2O2 addition measured after 24 hrs by annexin V-FITC/propidium iodide staining-based flow cytometric method (reference value: 85.2%); format: functional; conditions: read-out: Activity
[20] = test system: PC-12; test: Cytoprotective activity against H2O2-induced oxidative damage in rat PC12 cells assessed as increase in cell viability preincubated for 24 hrs followed by H2O2 addition measured after 24 hrs by MTT assay; format: functional, cell-based

| Activity [1] | Activity [9] | Activity [10] | Structure (SMILES) | Activity [2] [%] | fold change (FC) [3] | Activity [4] | Activity [5] [%] | Activity [6] | viability at 5 µM [7] [%] | Activity [8] [%] | Activity [11] [%] | Activity [12] [%] | Activity [13] [%] | Activity [14] [%] | Activity [15] [%] | fold change (FC) [16] | Activity [17] [%] | viability at 10 µM [18] [%] | viability at 2.5 µM [19] [%] | Activity [20] |
| --- | --- | --- | --- | --- | --- | --- | --- | --- | --- | --- | --- | --- | --- | --- | --- | --- | --- | --- | --- | --- |
| Dose-dependent effect | Active | Active | CCC(=O)N1NC(c2cc(OC)c(OC)c(OC)c2)C2=C1CCC2 (stereo not drawn) | 1.46 | 0.5 | Dose-dependent effect | 2.44 | inactive | 93.5 | 2.96 | 2.64 | 1.64 | 1.46 | 2.27 | 2.65 | 0.5 | 1.69 | 93.1 | 94.2 | Dose-dependent effect |
|  |  |  | CC1=NN(c2ccccc2)C(=O)C1 [EDARAVONE] |  |  |  |  |  |  | 1.85 |  | 1.17 |  | 1.92 |  |  |  | 95.1 |  |  |
|  |  |  | CC(C)(C)c1cc(O)ccc1O [E319] |  |  |  |  |  |  | 0.882 |  | 1.1 |  | 0.882 |  |  |  | 97.1 |  |  |
